Laboratory results as given in doi:10.1101/2024.02.23.581731v1 (biorxiv, 2024).
Changes are numbered by the printed parent chain.

How the values were obtained:
Test in all cases: FLIPR Blue membrane potential assay, inhibition of 5-HT response
Type in all cases: cell-based
[1] = biological target: T1, gp5-HT3AR (Cavia porcellus, UniProt O70212)
T1 sequence (O70212 20-490): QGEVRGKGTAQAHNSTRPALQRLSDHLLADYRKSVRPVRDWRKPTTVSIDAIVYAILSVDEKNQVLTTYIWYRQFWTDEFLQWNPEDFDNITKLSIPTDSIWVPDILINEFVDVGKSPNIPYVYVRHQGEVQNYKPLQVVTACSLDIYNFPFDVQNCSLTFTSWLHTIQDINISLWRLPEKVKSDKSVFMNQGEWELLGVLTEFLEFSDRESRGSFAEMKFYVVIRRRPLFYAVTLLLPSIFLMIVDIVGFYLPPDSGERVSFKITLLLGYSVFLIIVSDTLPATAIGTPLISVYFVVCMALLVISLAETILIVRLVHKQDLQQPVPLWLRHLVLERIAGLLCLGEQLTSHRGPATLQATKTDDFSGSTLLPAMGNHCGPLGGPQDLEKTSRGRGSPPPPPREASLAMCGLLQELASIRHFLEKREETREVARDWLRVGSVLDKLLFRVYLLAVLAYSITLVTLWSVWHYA

[2] = biological target: T2, h5-HT3AR (Homo sapiens, UniProt P46098, R200K)
T2 sequence (P46098 24-478 R200K): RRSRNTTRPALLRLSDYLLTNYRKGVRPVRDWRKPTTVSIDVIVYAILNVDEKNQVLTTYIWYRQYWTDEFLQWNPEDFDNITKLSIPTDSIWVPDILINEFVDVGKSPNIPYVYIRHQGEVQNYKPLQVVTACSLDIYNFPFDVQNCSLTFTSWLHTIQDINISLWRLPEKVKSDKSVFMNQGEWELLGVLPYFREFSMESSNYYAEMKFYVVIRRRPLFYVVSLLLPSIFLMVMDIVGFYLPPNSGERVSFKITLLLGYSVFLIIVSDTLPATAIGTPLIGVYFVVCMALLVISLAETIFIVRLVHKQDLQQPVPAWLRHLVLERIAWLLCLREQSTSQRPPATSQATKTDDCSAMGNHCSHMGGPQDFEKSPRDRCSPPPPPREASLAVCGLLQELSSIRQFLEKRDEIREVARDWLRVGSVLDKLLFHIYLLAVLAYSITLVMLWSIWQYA

[3] = biological target: T3, h5-HT3AR (Homo sapiens, UniProt P46098, M204I)
T3 sequence (P46098 24-478 M204I): T2 sequence (P46098 24-478 R200K) with K177R, M181I

[4] = biological target: T4, h5-HT3AR (Homo sapiens, UniProt P46098, Y228S)
T4 sequence (P46098 24-478 Y228S): T2 sequence (P46098 24-478 R200K) with K177R, Y205S

[5] = biological target: T5, h5-HT3AR (Homo sapiens, UniProt P46098, M223I)
T5 sequence (P46098 24-478 M223I): T2 sequence (P46098 24-478 R200K) with K177R, M200I

[6] = biological target: T6, h5-HT3AR (Homo sapiens, UniProt P46098)
T6 sequence (P46098 24-478): T2 sequence (P46098 24-478 R200K) with K177R

Structure (SMILES): Cc1ccc(Sc2ccccc2N2CCNCC2)c(C)c1 [vortioxetine]
- IC50 [1]: 2.35 µM
- IC50 [2]: 0.094 µM
- IC50 [3]: 0.073 µM
- IC50 [4]: 0.084 µM
- IC50 [5]: 0.02 µM
- IC50 [6]: 0.02 µM
